This note sets out measurements from US8093288B2, “Genipin derivatives and uses thereof” (Beth Israel Deaconess Medical Center, priority 2003, dated 2012).

One experiment concerns ob/ob islets. As to the kind of experiment: Glucose-stimulated insulin secretion in islets from ob/ob mice. The note with it: 5 μM genipin acutely added, FIG. 12C. It is filed as cell-based. On the procedure:
(§1) Pancreatic islets were isolated from WT (FIG. 12A) or UCP2 KO mice (FIG. 12B) and subjected to chronic incubations at low (5.5 mM) and high glucose (25 mM). In a separate experiment, islets were isolated from ob/ob mice (FIG. 12C). Islets were incubated for a total of 72 hours and washed, and then insulin-secretion studies were performed using three different concentrations of glucose (5.5, 12.5, and 25 mM) with or without 5 μM genipin. Results are means±SEM of four independent experiments (FIGS. 12A and 12B) or eight to twenty repeats of one representative experiment (FIG. 12C). WT islets that were chronically incubated at low glucose released increasing amounts of insulin in response to increasing concentrations of glucose (FIG. 12A, left panel). Following chronic hyperglycemia, islets increased basal insulin release, but were completely unresponsive to glucose stimulation (FIG. 12A, middle panel). […] To assess the role of genipin in hyperglycemia-induced loss of glucose responsiveness, genipin was acutely added into islets during the insulin-release phase of the study. […] Insulin secretion in islets from ob/ob mice and ob/ob mice lacking UCP2 with or without genipin was also studied. It has been reported that in ob/ob islets, UCP2 expression levels are increased compared to WT islets. […]

For experiment [1], the system named is WT mice on chow diet, WT mice on high fat diet, ob/ob mice. As to the kind of experiment: Serum insulin in vivo after genipin injection in WT (chow, HFD) and ob/ob mice. The conditions noted are these: WT chow (6 hours fasting, 10 mg/kg), WT HFD (20 hours fasting, 10 mg/kg), ob/ob (20 hours fasting, 20 mg/kg); injected; FIGS. 13A-C. The protocol: UCP2-deficient mice have increased serum insulin levels. Genipin inhibits UCP2 activity, and thus should stimulate insulin secretion acutely in vivo. In the present study, the effect of genipin on insulin secretion in vivo was assessed. WT and UCP2 KO mice were fed a chow diet (FIG. 13A), or placed on a high fat diet (HFD) (FIG. 13B) (#D12331, obtained from Research Diets Inc., New Brunswick, N.J.). The fat source was coconut oil and comprised 58% of the total calories. The mice remained on the HFD for 24 weeks. Both WT and KO mice were obese (50-60 g). ob/ob mice (FIG. 13C) were obtained from The Jackson Laboratory. After 6 hours (FIG. 13A) or 20 hours (FIGS. 13B and 13C) of fasting, genipin (10 mg/kg (FIGS. 13A and 13B), or 20 mg/kg (FIG. 13C)) was injected into the mice. Serum insulin levels were measured before and after administration of genipin as indicated.

The test system of experiment [2] is islets from ob/ob mice lacking UCP2. Kind of experiment: Glucose-stimulated insulin secretion in islets from ob/ob mice lacking UCP2. In kind it is cell-based. The note with it: 5 μM genipin, FIG. 12C. On the procedure:
as §1

In experiment [3] the test system is high fat diet-fed wildtype mice. As to the kind of experiment: Blood glucose and insulin after genipin injection in high fat diet-fed wildtype mice. In kind it is in vivo. The note with it: high fat diet 24 weeks, 20 hours fasting, 300 μg genipin injected, thirty minutes after injection. The protocol: Wildtype and UCP2 knockout mice were placed on a high fat diet obtained from Research Diets Inc., New Brunswick, N.J. (cat. no. D12331, HFD). The fat source was coconut oil and comprised 58% of the total calories. The mice remained on the high fat diet for 24 weeks. After the 24 weeks, both the wildtype and the UCP2 knockout mice were obese (about 50-60 g). After 20 hours of fasting, the blood glucose and insulin levels of the mice were measured, then the mice were injected with 300 μg of genipin. Thirty minutes after injection the blood glucose and insulin levels of the mice were measured again. Blood glucose levels were assessed using a glucometer (One touch, Lifescan, Milpitas, Calif.). Serum insulin concentrations were assessed using mouse insulin as a standard (Rat Insulin ELISA Kit. cat. #INSKR020 Crystal Chem. Inc., Chicago, Ill.). […] A comparison of the effect of genipin on the blood glucose levels and insulin levels in wildtype and UCP2 knockout mice can be seen in FIGS. 7 and 10, respectively.

The test system of experiment [4] is pancreatic islets from wildtype mice. As to the kind of experiment: Insulin secretion in isolated pancreatic islets from wildtype mice. In kind it is cell-based. The note with it: 5.5 mM glucose; 50 nM, 0.5 μM and 5 μM genipin; 37° C. for 60 min; WT islets; FIG. 4 / FIG. 11B. The protocol: As used or herein, pancreatic islets from wildtype and UCP2 knockout mice were isolated according to a method used for rats (Cawthorn and Chan, Mol. Cell. Endocrinol. 1991, 75:197-204, the entire teachings of which are incorporated herein by reference), except that the total exposure to type XI collagenase (Worthington Biochemical Co., NJ) was 30 min. and the Ficoll gradient was altered to layers of 25%, 23%, 21%, and 11%. Islets were harvested from the 11%-21% interface.
Islets were cultured in RPMI medium containing 11.0 mM glucose and supplemented with 1% penicillin-streptomycin. 7.5% fetal bovine serum (all from Gibco/BRL, Burlington, ON), and 10 mM Hepes (Sigma). After culturing for 20-24 hr, the islets were transferred to microcentrifuge tubes, pelleted (800 g for 5 min), and the medium aspirated and replaced with 1.0 mL DME medium containing 1% gelatin and 5.5 mM glucose with no genipin (control), 50 nM genipin, 0.5 μM genipin, and 5 μM genipin. For insulin secretion studies, the three islets were incubated per tube. After incubation at 37° C. for 60 min., the islets were centrifuged. The supernatant was collected and stored at −80° C., and then later assayed for insulin using Rat Insulin ELISA Kit (Cat. No. INSKR020, Crystal Chem., Inc., Chicago, Ill.).
FIGS. 11B and 11C show their effects on insulin secretion. Pancreatic islets were isolated from WT or UCP2 knockout (KO) mice. […]

For `COC(=O)C1=CO[C@@H](O)[C@@H]2C(CO)=CC[C@H]12` [genipin], the “glucose sensing (glucose-stimulated insulin secretion)” value with ob/ob islets is on record as “restored glucose sensing”; in experiment [2] it was “did not improve glucose sensing above the level seen in islets lacking UCP2 alone”. Further, in experiment [1], the serum insulin levels entry is “can increase insulin levels in all three animal models”. The blood glucose levels entry in experiment [3] (FIG. 5) is given as “significantly lowered blood glucose”. Also, the blood insulin levels entry in experiment [3] (FIG. 8) is reported as “dramatically increase the blood insulin levels”. In experiment [4], the insulin secretion result is given as “increases insulin secretion in a dose-dependent manner”.
